Measured values: paper PMC11864979, “First-in-class ultralong-target-residence-time p38α inhibitors as a mitosis-targeted therapy for colorectal cancer” (Nature Cancer, 2025)
Values joined by “and” are separate entries in the source; they are usually repeats but may differ in a detail not shown here. Equal entries are not always repeated. Where two headings read alike, the source gives them in different places.

What was measured:
p38α = p38α (Homo sapiens, UniProt Q16539); experiment: target residence time (TRT) fluorescence polarization jump-dilution assay; type: binding
p38α, sequence (Q16539 whole entry): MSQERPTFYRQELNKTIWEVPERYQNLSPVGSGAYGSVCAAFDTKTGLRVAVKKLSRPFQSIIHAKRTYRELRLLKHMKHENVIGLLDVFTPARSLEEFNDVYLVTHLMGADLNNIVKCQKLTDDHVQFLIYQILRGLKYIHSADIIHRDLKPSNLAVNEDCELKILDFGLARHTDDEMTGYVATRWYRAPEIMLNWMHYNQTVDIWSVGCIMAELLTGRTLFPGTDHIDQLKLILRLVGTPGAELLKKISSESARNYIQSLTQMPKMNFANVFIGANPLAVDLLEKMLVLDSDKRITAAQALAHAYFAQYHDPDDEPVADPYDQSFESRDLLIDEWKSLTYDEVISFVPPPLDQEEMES
Procedure: TRTs were determined using a fluorescence polarization assay kit (Transcreener ADP, BellBrook Labs)[29]. […] The formed complex was ‘jump-diluted’ 1:100 (0.5 µl in 49.5 µl) in a 96-half-area-well plate with ATF2 (82 μM), ATP (40 μM) and ADP as the kinase assay detection reagents. The plate was measured every 3 min for 4 h. Fluorescence polarization was detected using the plate reader VictorNivo (PerkinElmer). The data were analyzed using the integrated rate equation in GraphPad Prism version 7.03 software. The residence time was calculated from the reciprocal value of koff.

PDO9 = experiment: cell viability in patient-derived CRC organoids PDO9; type: cell-based, human
Procedure: (§1) For in vitro treatment studies, organoids were mechanically dissociated and digested using TrypLE supplemented with 100 µg ml^−1 DNaseI and 10.5 µM Y-27632 dihydrochloride (Invitrogen) at 37 °C. A total of 1,000–2,000 single cells were plated per well in white 96-well plates (Greiner) in culture medium containing 10% GFR Matrigel or Cultrex BME. The treatment with doxycycline (5 µg ml^−1), pharmacological inhibitors or corresponding volumes of DMSO was started 24 h after plating. Doxycycline was obtained from Sigma-Aldrich. […] Cell viability was measured by means of CellTiter-Glo 3D or CellTiter-Glo 2.0 reagent (Promega) according to the manufacturers’ instructions and the Infinite M Plex reader (Tecan, i-control version 3.9.1 software). Results were normalized to vehicle (DMSO) or to shNC. For cell-doubling assays, the cell number was quantified at the corresponding time points using Guava EasyCyte flow cytometer (Luminex, CytoSoft v5.2 software).

PDO11 = experiment: cell viability in patient-derived CRC organoids PDO11; type: cell-based, human
Procedure: as §1

HCT-15 = experiment: cell viability in human CRC cell line HCT-15; type: cell-based; settings: for HCT-15 Cell viability (%): 4 d
Procedure: (§2) To generate KAP^2D cells, KAP organoids were isolated from Matrigel, fragmented by mechanical dissociation and plated without any extracellular matrix on common cell culture dishes. Phoenix-Eco packaging cells (CRL-3214), HCT-15 (CCL-225), HCT 116 (CCL-247), COLO 205 (CCL-222), LS 174T (CL-188), RKO (CRL-2577) and HT-29 (HTB-38) were obtained from the American Type Culture Collection. The cells were cultured at 37 °C and 7% CO2 with RPMI (KAP^2D cells) or DMEM (other cell lines), supplemented with 10% FBS and penicillin–streptomycin. KAP^2D cells were authenticated using PCR (Kras locus and Trp53 locus). Phoenix-Eco packaging cells and HCT-15, HCT 116, COLO 205, LS 174T, RKO and HT-29 cells were authenticated by the provider using short tandem repeat profiling. No commonly misidentified cell lines were used. Mycoplasma contamination was excluded by a PCR-based analysis.
as §1

HCT 116 = experiment: cell viability in human CRC cell line HCT 116; type: cell-based; settings: for HCT 116 Cell viability (%): 4 d
Procedure: as §2, §1

RKO = experiment: cell viability in human CRC cell line RKO; type: cell-based; settings: ED Fig. 9g, replicates; for viability at 0.0137 µM: read-out: RKO Cell viability (%), 0.0137 µM; for viability at 0.0412 µM: read-out: RKO Cell viability (%), 0.0412 µM; for viability at 0.1235 µM: read-out: RKO Cell viability (%), 0.1235 µM; for viability at 0.3704 µM: read-out: RKO Cell viability (%), 0.3704 µM; for viability at 3.3333 µM: read-out: RKO Cell viability (%), 3.3333 µM; for viability at 10 µM: read-out: RKO Cell viability (%), 10.0000 µM
Procedure: as §2, §1

KAP^2D cells [1] = experiment: P-H3^S10 / α-tubulin staining, mitotic phases in KAP^2D cells; type: cell-based, mouse; settings: replicates, experiment and repetition
Procedure: Immunofluorescence staining on cells and organoids was performed on glass coverslips or tissue culture chambers (Sarstedt). Organoids were plated in medium containing 10% Matrigel or Cultrex BME. The cultures were fixed with 4% paraformaldehyde and stained with specific antibodies and DAPI (Vector Labs). All used antibodies and dilutions are listed in the Nature Portfolio Reporting Summary. For analyzing DNA synthesis, the Molecular Probes Click-iT EdU Alexa Fluor 555 kit was used 24 h after EdU incorporation with DAPI counterstaining. SA-β-Gal staining of cells was performed in cell culture dishes (cells) or tissue culture chambers (organoids) after fixation with 0.5% glutaraldehyde as described above. Human cultures were incubated with X-Gal solution at pH 6.0 for ~4 h. […] Positive cells were quantified using ImageJ version 1.53a software. The analysis of mitosis was performed with an LSM800 Airyscan (Zeiss) microscope (ZEN version 3.0 software). An Airyscan autofilter processing was applied before image analysis.

KAP^2D cells [2] = experiment: annexin V apoptosis analysis in KAP^2D cells; type: cell-based, mouse; settings: Fig. 5a
Procedure: Apoptosis was analyzed with the FITC annexin V apoptosis detection kit (Biolegend). Both measurements were performed with FACS Canto II (BD) and physical parameters were used to exclude cell debris and cell doublets.

[3] = Homo sapiens, RKO, first experiment

## O=C1c2ccc(Nc3ccc(F)cc3F)cc2CCc2ccc(OC[C@H](O)CO)cc21 [SKL, skepinone-L, reference compound]
p38α; Fig. 2e, replicates
  TRT: 88.3 s and 94.8 s and 81.2 s
p38α; reciprocal of koff
  TRT: 88 s
PDO9; Homo sapiens, 96 h, read-out: Cell viability (%), PDO9, 0.5 µM, 4 d
  viability at 0.5 µM: 92%
PDO9; PDO9, 0.5 µM, 4 d, 0.5 µM
  Cell viability (%): 97.83% and 101.86%
PDO9; PDO9, 1 µM, 4 days, 1 µM
  Cell viability (%): 97.80% and 79.73% and 102.56%
PDO11; Homo sapiens, 96 h, read-out: Cell viability (%), PDO11, 0.5 µM, 4 d
  viability at 0.5 µM: 105%
PDO11; PDO11, 0.5 µM, 4 d, 0.5 µM
  Cell viability (%): 108.79% and 91.94%
PDO11; PDO11, 1 µM, 4 days, 1 µM
  Cell viability (%): 107.20% and 119.15% and 97.40%
HCT-15; 0.0137 µM
  HCT-15 Cell viability (%): 94.63% and 95.15% and 88.92% and 87.12% and 85.20%
HCT-15; 0.0412 µM
  HCT-15 Cell viability (%): 84.33% and 79.97% and 95.82% and 93.07% and 94.19%
HCT-15; 0.1235 µM
  HCT-15 Cell viability (%): 87.23% and 83.60% and 94.86% and 91.54% and 91.68%
HCT-15; 0.3704 µM
  HCT-15 Cell viability (%): 89.64% and 87.65% and 88.79% and 84.50% and 86.12%
HCT-15; 1.1111 µM
  HCT-15 Cell viability (%): 86.80% and 87.17% and 87.53% and 83.96% and 84.00%
HCT-15; 3.3333 µM
  HCT-15 Cell viability (%): 78.50% and 80.56% and 79.62% and 74.15% and 75.97%
HCT-15; 10.0000 µM
  HCT-15 Cell viability (%): 48.74% and 48.84% and 48.80% and 46.08% and 47.66%
HCT-15; Homo sapiens, HCT-15, 96 h, read-out: HCT-15 Cell viability (%), 0.0137 µM, 4 d
  viability at 0.0137 µM: 96.7%
HCT-15; Homo sapiens, HCT-15, 96 h, read-out: HCT-15 Cell viability (%), 0.0412 µM, 4 d
  viability at 0.0412 µM: 83.9%
HCT-15; Homo sapiens, HCT-15, 96 h, read-out: HCT-15 Cell viability (%), 0.1235 µM, 4 d
  viability at 0.1235 µM: 87.5%
HCT-15; Homo sapiens, HCT-15, 96 h, read-out: HCT-15 Cell viability (%), 0.3704 µM, 4 d
  viability at 0.3704 µM: 93.1%
HCT-15; Homo sapiens, HCT-15, 96 h, read-out: HCT-15 Cell viability (%), 1.1111 µM, 4 d
  viability at 1.1111 µM: 93.5%
HCT-15; Homo sapiens, HCT-15, 96 h, read-out: HCT-15 Cell viability (%), 3.3333 µM, 4 d
  viability at 3.3333 µM: 76.4%
HCT-15; Homo sapiens, HCT-15, 96 h, read-out: HCT-15 Cell viability (%), 10.0000 µM, 4 d
  viability at 10 µM: 49.5%
HCT 116; 0.0137 µM
  HCT 116 Cell viability (%): 82.53% and 93.66% and 88.98% and 84.63%
HCT 116; 0.0412 µM
  HCT 116 Cell viability (%): 87.30% and 84.90% and 78.78% and 77.22% and 83.29%
HCT 116; 0.1235 µM
  HCT 116 Cell viability (%): 92.74% and 88.80% and 81.62% and 82.67% and 87.37%
HCT 116; 0.3704 µM
  HCT 116 Cell viability (%): 94.27% and 95.66% and 82.63% and 82.17%
HCT 116; 1.1111 µM
  HCT 116 Cell viability (%): 100.75% and 99.43% and 96.05% and 80.80% and 79.61% and 91.28%
HCT 116; 3.3333 µM
  HCT 116 Cell viability (%): 95.32% and 96.31% and 81.21% and 79.37% and 87.78%
HCT 116; 10.0000 µM
  HCT 116 Cell viability (%): 90.67% and 87.54% and 88.22% and 75.98% and 77.27% and 105.12%
HCT 116; Homo sapiens, HCT-116, 96 h, read-out: HCT 116 Cell viability (%), 0.0137 µM, 4 d
  viability at 0.0137 µM: 85.5%
HCT 116; Homo sapiens, HCT-116, 96 h, read-out: HCT 116 Cell viability (%), 0.0412 µM, 4 d
  viability at 0.0412 µM: 90.7%
HCT 116; Homo sapiens, HCT-116, 96 h, read-out: HCT 116 Cell viability (%), 0.1235 µM, 4 d
  viability at 0.1235 µM: 93.8%
HCT 116; Homo sapiens, HCT-116, 96 h, read-out: HCT 116 Cell viability (%), 0.3704 µM, 4 d
  viability at 0.3704 µM: 94.8%
HCT 116; Homo sapiens, HCT-116, 96 h, read-out: HCT 116 Cell viability (%), 3.3333 µM, 4 d
  viability at 3.3333 µM: 96.3%
RKO; 0.0137 µM, Repetition
  RKO Cell viability (%): 119.75% and 114.04%
RKO; 0.0137 µM, first experiment
  RKO Cell viability (%): 97.01% and 95.97%
RKO; 0.0412 µM, Repetition
  RKO Cell viability (%): 110.50% and 104.43%
RKO; 0.0412 µM, first experiment
  RKO Cell viability (%): 90.38% and 90.15%
RKO; 0.1235 µM, Repetition
  RKO Cell viability (%): 96.29%
RKO; 0.1235 µM, first experiment
  RKO Cell viability (%): 96.41% and 82.79%
RKO; 0.3704 µM, Repetition
  RKO Cell viability (%): 112.94% and 109.02%
RKO; 0.3704 µM, first experiment
  RKO Cell viability (%): 79.06% and 75.48%
RKO; 1.1111 µM, Repetition
  RKO Cell viability (%): 92.46% and 113.42% and 111.27%
RKO; 1.1111 µM, first experiment
  RKO Cell viability (%): 98.68% and 92.88%
RKO; 3.3333 µM, Repetition
  RKO Cell viability (%): 97.71% and 103.33%
RKO; 3.3333 µM, first experiment
  RKO Cell viability (%): 90.21% and 92.19%
RKO; 10.0000 µM, Repetition
  RKO Cell viability (%): 100.51% and 98.00%
RKO; 10.0000 µM, first experiment
  RKO Cell viability (%): 77.92% and 73.23%
RKO; Homo sapiens, RKO, Repetition
  viability at 0.0137 µM: 123%
  viability at 0.0412 µM: 107%
  viability at 0.1235 µM: 114%
  viability at 0.3704 µM: 108%
  viability at 3.3333 µM: 96.8%
  viability at 10 µM: 92%
RKO; [3]
  viability at 0.0137 µM: 103%
  viability at 0.0412 µM: 102%
  viability at 0.1235 µM: 91.2%
  viability at 0.3704 µM: 82.8%
  viability at 3.3333 µM: 96.5%
  viability at 10 µM: 71.1%
RKO; Homo sapiens, RKO, read-out: RKO Cell viability (%), 1.1111 µM, first experiment
  viability at 1.1111 µM: 99.3%
KAP^2D cells [1]; Fig. 4f
  Anaphase, % (of fully P-H3S10+ cells): 10.84% and 8.57% and 15.15% and 12.31% and 9.21% and 11.59%
  Metaphase, % (of fully P-H3S10+ cells): 25.30% and 20.00% and 30.30% and 29.23% and 25.00% and 27.54%
  Multipolar mitosis, % (of fully P-H3S10+ cells): 3.61% and 2.86% and 6.06% and 3.08% and 3.95% and 8.70%
  Telophase, % (of fully P-H3S10+ cells): 8.43% and 9.52% and 12.12% and 10.77% and 13.16% and 15.94%
KAP^2D cells [1]; Fig. 4d
  P-H3S10+ cells, fully positive: 4.75% and 6.25% and 2.15% and 4.12% and 5.03% and 3.69%
  P-H3S10+ cells, partially positive: 6.47% and 7.85% and 5.54% and 6.84% and 8.15%
KAP^2D cells [2]; 1 d of treatment
  Annexin V+ cells: 5.21% and 5.26% and 4.63% and 7.96% and 7.76% and 8.93%
KAP^2D cells [2]; 2 d of treatment
  Annexin V+ cells: 9.26% and 10.60% and 6.13% and 6.98% and 6.69% and 8.97%
KAP^2D cells [2]; 3 d of treatment
  Annexin V+ cells: 12.30% and 9.65% and 9.21% and 7.99% and 8.10%
KAP^2D cells [2]; 4 d of treatment
  Annexin V+ cells: 14.90% and 13.30% and 12.30% and 11.90% and 13.00% and 16.60%
